Reference: the supplement of paper PMC10307832

Key:
Test in all cases: relative viability (nuclei count vs DMSO), 5 days (fraction); higher = more cells survive
Linsitinib + Pictilisib = compound: C[C@]1(O)C[C@@H](c2nc(-c3ccc4ccc(-c5ccccc5)nc4c3)c3c(N)nccn32)C1 [Linsitinib] + CS(=O)(=O)N1CCN(Cc2cc3nc(-c4cccc5[nH]ncc45)nc(N4CCOCC4)c3s2)CC1 [Pictilisib] (partner 1 µM)
How it was run: (§1)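 After 5 days of treatment, lung cancer cells in 1536-well plates were fixed and stained in a single step (final 0.05% Triton X-100, 1% formaldehyde, 1 ug/ml Hoechst) and their nuclei counted on 4× images. Treatment had been applied by pin tool the day after seeding as one drug alone or as a fixed anchor-drug dose with five library-drug doses (not always all listed) in √10 steps. Relative viability is the nuclei count of treated wells divided by that of vehicle wells, and values are medians of duplicate plates.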

Linsitinib + Alpelisib = compound: C[C@]1(O)C[C@@H](c2nc(-c3ccc4ccc(-c5ccccc5)nc4c3)c3c(N)nccn32)C1 [Linsitinib] + Cc1nc(NC(=O)N2CCC[C@H]2C(N)=O)sc1-c1ccnc(C(C)(C)C(F)(F)F)c1 [Alpelisib] (partner 2 µM)
How it was run: as §1

Linsitinib + Dasatinib = compound: C[C@]1(O)C[C@@H](c2nc(-c3ccc4ccc(-c5ccccc5)nc4c3)c3c(N)nccn32)C1 [Linsitinib] + Cc1nc(Nc2ncc(C(=O)Nc3c(C)cccc3Cl)s2)cc(N2CCN(CCO)CC2)n1 [Dasatinib] (partner 0.075 µM)
How it was run: as §1

Ispinesib + Palbociclib = compound: Cc1ccc(C(=O)N(CCCN)[C@@H](c2nc3cc(Cl)ccc3c(=O)n2Cc2ccccc2)C(C)C)cc1 [Ispinesib] + CC(=O)c1c(C)c2cnc(Nc3ccc(N4CCNCC4)cn3)nc2n(C2CCCC2)c1=O [Palbociclib] (partner 0.5 µM)
How it was run: as §1

Cell Line | relative viability (Linsitinib + Pictilisib; first compound 0.01 µM) | relative viability (Linsitinib + Pictilisib; first compound 0.03162 µM) | relative viability (Linsitinib + Pictilisib; first compound 0.1 µM) | relative viability (Linsitinib + Pictilisib; first compound 0.3162 µM) | relative viability (Linsitinib + Pictilisib; first compound 1 µM) | relative viability (Linsitinib + Alpelisib; first compound 0.01 µM) | relative viability (Linsitinib + Alpelisib; first compound 0.03162 µM) | relative viability (Linsitinib + Alpelisib; first compound 0.1 µM) | relative viability (Linsitinib + Alpelisib; first compound 0.3162 µM) | relative viability (Linsitinib + Alpelisib; first compound 1 µM) | relative viability (Linsitinib + Dasatinib; first compound 0.01 µM) | relative viability (Linsitinib + Dasatinib; first compound 0.03162 µM) | relative viability (Linsitinib + Dasatinib; first compound 0.1 µM) | relative viability (Linsitinib + Dasatinib; first compound 0.3162 µM) | relative viability (Linsitinib + Dasatinib; first compound 1 µM) | relative viability (Ispinesib + Palbociclib; first compound 0.001 µM) | relative viability (Ispinesib + Palbociclib; first compound 0.003162 µM) | relative viability (Ispinesib + Palbociclib; first compound 0.01 µM) | relative viability (Ispinesib + Palbociclib; first compound 0.03162 µM) | relative viability (Ispinesib + Palbociclib; first compound 0.1 µM)
NCI-H2405 | 0.428 | 0.329 | 0.43 | 0.69 | 0.332 | 0.86 | 0.625 | 1.04 | 0.632 | 0.698 | 0.189 | 0.207 | 0.202 | 0.34 | 0.18 | 0.546 | 0.555 | 0.512 | 0.479 | 0.397
NCI-H3122 | 0.601 | 0.58 | 0.572 | 0.499 | 0.399 | 0.85 | 0.763 | 0.768 | 0.699 | 0.758 | 0.846 | 0.808 | 0.765 | 0.218 | 0.514 | 0.221 | 0.216 | 0.216 | 0.202 | 0.157
PC-3 [JPC-3] | 0.804 | 0.777 | 0.665 | 0.517 | 0.52 | 1.03 | 1.05 | 1.03 | 1.02 | 0.924 | 1 | 0.912 | 1.06 | 0.991 | 0.98 | 0.533 | 0.55 | 0.548 | 0.553 | 0.395
PC-14 | 0.691 | 0.701 | 0.75 | 0.598 | 0.5 | 0.799 | 0.89 | 0.968 | 0.792 | 0.837 | 0.285 | 0.274 | 0.282 | 0.202 | 0.19 | 0.493 | 0.439 | 0.134 | 0.0579 | 0.152
RERF-LC-KJ | 0.593 | 0.55 | 0.538 | 0.44 | 0.429 | 0.838 | 0.9 | 0.832 | 0.878 | 0.757 | 0.75 | 0.964 | 0.697 | 0.543 | 0.454 | 1.11 | 1.03 | 0.935 | 0.68 | 0.583
SK-LU-1 | 0.54 | 0.548 | 0.706 | – | 0.592 | 0.975 | 0.908 | 1.03 | – | 1.09 | 0.193 | – | 0.168 | 0.182 | 0.115 | 0.323 | 0.412 | 0.379 | 0.312 | 0.325
SK-MES-1 | 0.357 | 0.377 | 0.32 | 0.293 | 0.339 | 0.9 | 1.02 | 0.907 | 0.814 | 0.854 | 0.297 | 0.351 | 0.257 | 0.323 | 0.289 | 0.277 | 0.345 | 0.319 | 0.154 | 0.224
SW 1573 | 0.453 | 0.571 | 0.471 | 0.433 | 0.425 | 0.677 | 0.831 | 0.761 | 0.655 | 0.654 | 0.454 | 0.454 | 0.453 | 0.348 | 0.252 | 0.385 | 0.404 | 0.32 | 0.18 | 0.218
